We go through three compounds from patent US8314079B2, “Hyaluronic acid oligosaccharide fractions and drugs containing the same” (Seikagaku Corporation, priority 2000, dated 2012).

SMILES strings stand for the structures.

The subject of assay [1] is HSF1. The assay is described as follows: Phosphorylation (activation) of HSF1 in heat-shocked K562 cells, band shift 66 kDa to 81 kDa by SDS-PAGE/Western blotting. In kind it is cell-based, human. The following applies: for shift of a band of 66 kDa (HSF1 not phosphorylated) to a band of 81 kDa (phosphorylated HSF1): Experiment 1, 1, 10 or 100 ng/mL, heat shock 42° C., 20 minutes; for amount of HSF1 per se / band shift of HSF1 (66 kDa to 81 kDa): Experiment 2 (and comparative Experiment 3), 100 ng/mL, heat shock 43° C. An excerpt: It is known that HSF1 (heat shock factor 1) protein is a transcription factor of Hsp70 (J. Biol. Chem., 271, pp. 3355-3358, 1996). Moreover, the HSF1 protein can be activated by phosphorylation, and this phosphorylation can be detected based on band shift in SDS-polyacrylamide gel electrophoresis (SDS-PAGE) (apparent molecular weight shifts from about 66 kDa to about 81 kDa). By utilizing this fact, the HA oligosaccharides of various sizes were allowed to act on the K562 cells given with stress, and the aforementioned band shift was detected to investigate the degree of the phosphorylation (activation) of HSF1.
HA4, ΔHA4, HA6, HA8, HA2-18 and HA 8-14 were each added to a medium containing the aforementioned cells at a concentration of 1, 10 or 100 ng/mL. Then, the cells were immediately transferred into an environment at 42° C. to be given with heat shock and incubated for 20 minutes. After the incubation, the cells were collected by centrifugation, and SDS-PAGE (gel concentration: 10%) was performed. Thereafter, Western blotting was performed by using anti-HSF1 monoclonal antibodies (produced by Stressgene) as primary antibodies and goat anti-mouse IgG monoclonal antibodies (produced by Jackson Lab) as secondary antibodies to detect the shift of a band of 66 kDa (HSF1 not phosphorylated) to a band of 81 kDa (phosphorylated HSF1).
In order to confirm the reproducibility of Experiment 1, the band shift was detected in the same manner as in Experiment 1 by using HA4, ΔHA4, HA8 and HA84 except that HA was added in a single kind of amount of 100 ng/mL, and the heat shock was given at 43° C. In FIG. 41, the first lane from the left indicates the result obtained with an extract of cells incubated at 37° C. (no addition of HA oligosaccharide), the second lane indicates the result obtained with an extract of cells subjected to 43° C. (no addition of HA oligosaccharide), and the first lane from the right indicates the result of detection of HSF1 (derived from bacteria) as a standard.
In order to investigate whether the action observed in Experiment 2 was specific to the saccharide chain basic structure of HA oligosaccharides, the following comparative experiment was performed by using chondroitin oligosaccharides. […] Therefore, it can be said that Ch is a substance extremely structurally analogous to HA, and the same shall also apply to the oligosaccharides thereof. • Saturated Ch tetrasaccharide (Ch4) • GlcAβ1-3GalNAcβ1-4GlcAβ1-3GalNAc • Saturated Ch hexasaccharide (Ch6) • GlcAβ1-3GalNAcβ1-4GlcAβ1-3GalNAcβ1-4GlcAβ1-3GalNAc • Saturated Ch octasaccharide (Ch8) • GlcAβ1-3GalNAcβ1-4GlcAβ1-3GalNAcβ1-4GlcAβ1-3GalNAcβ1-4GlcAβ1-3GalNAc
The same experiment as Experiment 2 was performed by using these oligosaccharides.

The test system of assay [2] is Hsp72. The assay is described as follows: Expression of Hsp72 in K562 cells given heat shock, Western blotting. It is filed as cell-based, human. On the procedure:
HA2, ΔHA4, HA6, HA84 and L4L4 were each added to a medium containing the aforementioned cells (37° C.) at a concentration of 1, 10 or 100 ng/mL. Then, the cells were immediately transferred into an environment at 43° C. to be given with heat shock and incubated for 20 minutes. Then, the cells were returned to 37° C., then further incubated for 2 hours and collected by centrifugation, and SDS-PAGE was performed in the same manner as in <1> mentioned above. Thereafter, Western blotting was performed by using anti-Hsp72 monoclonal antibodies (produced by Amersham) as primary antibodies and goat anti-rabbit IgG monoclonal antibodies (produced by Jackson Lab) as secondary antibodies to detect Hsp72. Hsp72 is one of the members of Hsp70 family and is the most typical one, and it is known that its expression is induced and promoted by stress.
The leftmost lane in FIG. 42a indicates the results of the detection of Hsp72 in a similar manner with giving no heat shock (37° C.) and addition of no test substance, and the rightmost lane indicates the results of detection of standard Hsp72 (Hsp72 derived from bacteria, bHsp72) in a similar manner.

As to `CC(=O)N[C@H]1[C@H](O[C@H]2[C@H](O)[C@@H](O)[C@H](O[C@H]3[C@H](O)[C@@H](CO)O[C@@H](O[C@H]4[C@H](O)[C@@H](O)[C@H](O[C@H]5[C@H](O)[C@@H](CO)OC(O)[C@@H]5NC(C)=O)O[C@@H]4C(=O)O)[C@@H]3NC(C)=O)O[C@@H]2C(=O)O)O[C@H](CO)[C@@H](O)[C@@H]1O[C@@H]1O[C@H](C(=O)O)[C@@H](O)[C@H](O)[C@H]1O.[Na].[Na].[Na]` (stereo partly drawn) [HA6, sodium β-D-glucopyranosyluronate-[(1→3)-2-acetamido-2-deoxy-β-D-glucopyranosyl-(1→4)-(sodium β-D-glucopyranosyluronate)]2-(1→3)-2-acetamido-2-deoxy-D-glucopyranose], the “shift of a band of 66 kDa (HSF1 not phosphorylated) to a band of 81 kDa (phosphorylated HSF1)” value in assay [1] is recorded as “shift to the 81 kDa band was observed depending on the amount of the added HA oligosaccharide”.
`CC(=O)N[C@H]1[C@H](O[C@H]2[C@H](O)[C@@H](O)[C@H](O[C@H]3[C@H](O)[C@@H](CO)O[C@@H](O[C@H]4[C@H](O)[C@@H](O)[C@H](O[C@H]5[C@H](O)[C@@H](CO)O[C@@H](O[C@H]6[C@H](O)[C@@H](O)[C@H](O[C@H]7[C@H](O)[C@@H](CO)OC(O)[C@@H]7NC(C)=O)O[C@@H]6C(=O)O)[C@@H]5NC(C)=O)O[C@@H]4C(=O)O)[C@@H]3NC(C)=O)O[C@@H]2C(=O)O)O[C@H](CO)[C@@H](O)[C@@H]1O[C@@H]1O[C@H](C(=O)O)[C@@H](O)[C@H](O)[C@H]1O` (stereo partly drawn) [HA8, sodium β-D-glucopyranosyluronate-[(1→3)-2-acetamido-2-deoxy-β-D-glucopyranosyl-(1→4)-(sodium β-D-glucopyranosyluronate)]3-(1→3)-2-acetamido-2-deoxy-D-glucopyranose]: in assay [1], the “shift of a band of 66 kDa (HSF1 not phosphorylated) to a band of 81 kDa (phosphorylated HSF1)” value is on record as “inhibition of the band shift was observed”, the “amount of HSF1 per se” value is “increase of the amount of HSF1 of 66 kDa was observed” and the “band shift of HSF1 (66 kDa to 81 kDa)” value is “band shift to the band of 81 kDa was not observed”.
Turning to `CC(=O)NC1C(O)OC(CO)[C@@H](O)C1O[C@@H]1OC(C(=O)[O-])[C@@H](O[C@@H]2OC(CO)[C@@H](O)C(O[C@@H]3OC(C(=O)[O-])=CC(O)C3O)C2NC(C)=O)C(O)C1O.[Na+].[Na+]` (stereo partly drawn) [ΔHA4, ΔGlcAβ1-3GlcNAcβ1-4GlcAβ1-3GlcNAc], in assay [1], the “shift of a band of 66 kDa (HSF1 not phosphorylated) to a band of 81 kDa (phosphorylated HSF1)” value is “shift to the 81 kDa band was observed depending on the amount of the added HA oligosaccharide”; the “amount of HSF1 per se” value is “amounts of both HSF1 of 66 kDa and 81 kDa per se were also increased”; the “band shift of HSF1 (66 kDa to 81 kDa)” value is “band shift was observed”. In assay [2] (K562 cells not given heat shock), the “expression of Hsp72” value is “enhancement of the expression of Hsp72 by ΔHA4 was not observed”. Further, the “expression of Hsp72” value in assay [2] (K562 cells, 1, 10 or 100 ng/mL, heat shock 43° C. 20 minutes, then 37° C. 2 hours) is “particularly strongly enhanced”.
